{"source": "paper PMC9027532", "about": "“Preclinical Pharmacokinetic Studies of a Novel Diuretic Inhibiting Urea Transporters” (Molecules, 2022)", "assay": "in vitro", "format": "in vitro ADME", "conditions": "plasma", "experimental": "The plasma protein binding (PPB) and blood plasma ratio (BPR) are crucial parameters influencing the drug distribution and elimination in plasma. The PPB profile of 25a was evaluated by equilibrium dialysis, a classic method to assess the interactions of small molecules with proteins. The PPB of 25a was tested at 50, 500, and 2500 ng/mL (Table 7). […] When considering the allometric scaling of PK parameters, the species difference of protein binding between humans and rats should be considered.\nThe plasma protein binding (PPB) ratio of 25a was assessed via equilibrium dialysis in SD rats and human plasma. Four hundred microliters of plasma containing 50, 500, or 2500 ng/mL 25a were loaded into the dialysis bags (plasma side), and the bags were placed into tubes containing 4 mL of the dialysis buffer (buffer side). The tubes were then rotated at approximately 100 rpm in a humidified incubator with 5% CO2 at 37 ± 1 °C for 5 h.\nAfter the 5 h dialysis, aliquots of 50 μL samples were taken from both the buffer and the plasma sides. An equal volume of the opposite blank matrix (buffer or plasma) was added to each sample to reach a final volume of 100 μL with a volume ratio of plasma to dialysis buffer at 1:1 (v/v). […] The PPB ratio (%) was calculated by PPB% = 100% × (1 − Conc.buffer side/Conc.plasma side).", "data": [{"smiles": "CC(=O)CC(c1ccccc1)c1c(O)c2ccccc2oc1=O", "note": "(stereo not shown) [warfarin]", "values": [{"measurement": "fraction unbound at 5 h", "value": 0.015}]}]}
